ChEMBL document CHEMBL4184240, “Potent human glutaminyl cyclase inhibitors as potential anti-Alzheimer's agents: Structure-activity relationship study of Arg-mimetic region” (Bioorg Med Chem, 2018)
Active and inactive are the calls of the source. No cut-off for these calls is given here.

How the values were obtained:
[1] = Permeability of the compound at pH 7.4 after 30 mins by PAMPA; format: ADME; conditions: pH 7.4, 0.5 h
[2] = Cytotoxicity against mouse HT22 cells assessed as cell viability at 10 uM relative to control; format: cell-based, HT-22; conditions: read-out: Activity
hERG (KCNH2) = hERG (KCNH2) (Homo sapiens, UniProt Q12809); experiment: Inhibition of human ERG at 10 uM relative to control
Chain of hERG (KCNH2) (Q12809 whole entry): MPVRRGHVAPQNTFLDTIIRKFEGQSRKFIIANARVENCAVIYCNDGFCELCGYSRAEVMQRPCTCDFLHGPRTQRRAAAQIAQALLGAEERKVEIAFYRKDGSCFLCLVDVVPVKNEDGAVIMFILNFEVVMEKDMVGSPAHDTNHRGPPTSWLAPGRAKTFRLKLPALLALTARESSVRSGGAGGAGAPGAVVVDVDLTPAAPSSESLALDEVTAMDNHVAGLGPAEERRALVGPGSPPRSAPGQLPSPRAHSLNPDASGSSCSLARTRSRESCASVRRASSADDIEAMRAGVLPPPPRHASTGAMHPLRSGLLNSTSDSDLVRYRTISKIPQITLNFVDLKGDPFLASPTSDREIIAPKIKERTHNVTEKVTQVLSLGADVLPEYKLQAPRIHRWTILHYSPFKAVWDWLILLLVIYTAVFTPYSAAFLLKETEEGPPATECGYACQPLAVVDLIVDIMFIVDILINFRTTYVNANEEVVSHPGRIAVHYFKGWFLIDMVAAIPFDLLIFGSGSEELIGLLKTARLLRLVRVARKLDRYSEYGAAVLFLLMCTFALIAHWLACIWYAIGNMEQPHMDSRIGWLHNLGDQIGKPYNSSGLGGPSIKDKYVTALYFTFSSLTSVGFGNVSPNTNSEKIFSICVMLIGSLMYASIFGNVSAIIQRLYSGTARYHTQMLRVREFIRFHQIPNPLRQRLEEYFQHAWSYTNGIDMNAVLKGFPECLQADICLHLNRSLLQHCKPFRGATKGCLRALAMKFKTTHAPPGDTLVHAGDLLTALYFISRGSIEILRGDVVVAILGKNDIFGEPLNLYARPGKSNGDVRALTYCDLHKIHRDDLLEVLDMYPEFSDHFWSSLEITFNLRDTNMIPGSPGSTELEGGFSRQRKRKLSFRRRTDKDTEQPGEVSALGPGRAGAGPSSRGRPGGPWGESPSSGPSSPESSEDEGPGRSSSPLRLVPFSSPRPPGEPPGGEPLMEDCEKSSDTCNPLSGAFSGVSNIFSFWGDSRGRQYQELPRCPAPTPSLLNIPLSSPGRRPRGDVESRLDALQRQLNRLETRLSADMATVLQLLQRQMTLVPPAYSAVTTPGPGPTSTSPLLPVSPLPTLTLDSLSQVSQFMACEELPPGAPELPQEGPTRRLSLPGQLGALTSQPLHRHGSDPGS

Mus musculus [3] = species: Mus musculus; experiment: animal or person; conditions: ICR, central, read-out: INH
Description: (§1) Antialzheimer activity in human amyloid beta (3 to 40) induced acute ICR mouse Alzheimer's disease mouse model assessed as inhibition of amyloid beta (N3pE to 40) formation in brain at 25 mg/kg, icv administered via deep cortical/hippocampal tissue measured next day by sandwich ELISA relative to control

Mus musculus [4] = species: Mus musculus; conditions: ICR, 25 mg/kg
Description: as §1

Row | log(permeability) [1] | SMILES | viability at 10 µM [2] | inhibition at 10 µM (hERG (KCNH2)) | inhibition in vivo at 25 mg/kg (Mus musculus [3]) | inhibition (Mus musculus [4])
1 | -6.7 | COc1cc(NC(=S)NCCCn2cncc2C)ccc1OCCC1CCN(CCO)CC1 | 100% | 8.2% | 0.19% | –
2 | -6 | COc1cc(NC(=S)NCCCn2cncc2C)ccc1OCCN1CCN(CCO)CC1 | 100% | 9.7% | – | inactive
3 | -5.6 | COc1cc(NC(=S)NCCCn2cncc2C)ccc1Oc1ccc(N2CCNCC2)cc1 | 100% | 39.7% | – | inactive
4 | -5.6 | COc1cc(NC(=S)NCCCn2cncc2C)ccc1Oc1ccc(C2CCNCC2)cc1 | 100% | 72.8% | – | inactive
5 | -5.8 | COc1cc(NC(=S)NCCCn2cncc2C)ccc1OCCN1CCNCC1C (stereo not given) | 100% | 33.4% | 3.01% | –
6 | -10 | COc1cc(NC(=S)NCCCn2cncc2C)ccc1OCCCN1CCN(CCN)CC1 | 100% | 28.9% | – | inactive
7 | -5.3 | COc1cc(NC(=S)NCCCn2cncc2C)ccc1OCCN1CC(C)NC(C)C1 (stereo not given) | 100% | 2.5% | – | inactive
8 | -5.7 | COc1cc(NC(=S)NCCCn2cncc2C)ccc1OCCCC(=O)N1CCNCC1 | 100% | 1.9% | 8.07% | –
9 | -10 | COc1cc(NC(=S)NCCCn2cncc2C)ccc1OCCCCc1ccnc(NCCN)c1 | 100% | 31.5% | – | inactive
10 | -10 | COc1cc(NC(=S)NCCCn2cncc2C)ccc1OCCCCN1CCN(CCN)CC1 | 100% | 21.1% | – | inactive
11 | -5.8 | COc1cc(NC(=S)NCCCn2cncc2C)ccc1OCc1ccc(C2CCNCC2)cc1 | 100% | 40.1% | 30% | –
12 | -5.7 | COc1cc(NC(=S)NCCCn2cncc2C)ccc1OCCN1CCN(CCN)CC1 | 100% | 2.5% | 5.43% | –
13 | -5.6 | COc1cc(NC(=S)NCCCn2cncc2C)ccc1OCCC(=O)NC1CCNCC1 | 100% | 5% | 13.5% | –
14 | – | COc1cc(NC(=S)NCCCn2cncc2C)ccc1OCCN1CCN(CCOCCN)CC1 | 51.1% | – | – | –
15 | -6.4 | COc1cc(NC(=S)NCCCn2cncc2C)ccc1OCC(=O)NC1CCN(CCN)CC1 | 100% | 17.8% | – | inactive
16 | -10 | COc1cc(NC(=S)NCCCn2cncc2C)ccc1OCCCCc1ccnc(NCCO)c1 | 100% | 44.4% | – | inactive
17 | -5.7 | COc1cc(NC(=S)NCCCn2cncc2C)ccc1OCCC(=O)N1CCNCC1 | 100% | 1.7% | 18.7% | –
18 | -8.7 | COc1cc(NC(=S)NCCCn2cncc2C)ccc1OCCCCN1CCN(CCO)CC1 | 100% | – | – | –

Row | SMILES | log(permeability) [1] | viability at 10 µM [2] | inhibition at 10 µM (hERG (KCNH2)) | inhibition in vivo at 25 mg/kg (Mus musculus [3]) | inhibition (Mus musculus [4])
19 | COc1cc(NC(=S)NCCCn2cncc2C)ccc1OCC(=O)N1CCN(CCN)CC1 | -10 | 100% | 14% | – | inactive
20 | COc1cc(NC(=S)NCCCn2cncc2C)ccc1Oc1ccc(C2=CCNCC2)cc1 | -4.9 | 100% | 52.8% | 16.1% | –
